Test results from ChEMBL document CHEMBL4350981, “Salinomycin and its derivatives - A new class of multiple-targeted "magic bullets"” (Eur J Med Chem, 2019).
Values after ≈ are worked out from the molar mass of the structure shown.

Key:
[1] = tested on: Staphylococcus aureus; experiment: Antibacterial activity against methicillin-sensitive Staphylococcus aureus; assay type: functional
[2] = tested on: Staphylococcus aureus; experiment: Antibacterial activity against methicillin-resistant Staphylococcus aureus; assay type: functional
[3] = tested on: Trypanosoma brucei; experiment: Trypanocidal activity against bloodstream forms of Trypanosoma brucei […] incubated for 24 hrs followed by compound wash out after 72 hrs; assay type: functional
[4] = tested on: Staphylococcus epidermidis; experiment: Antibacterial activity against methicillin-resistant Staphylococcus epidermidis; assay type: functional
[5] = tested on: Bacillus anthracis; experiment: Antibacterial activity against Bacillus anthracis; assay type: functional
[6] = tested on: Micrococcus luteus; experiment: Antibacterial activity against Sarcina lutea; assay type: functional
[7] = tested on: Bacillus subtilis; experiment: Antibacterial activity against Bacillus subtilis; assay type: functional
[8] = tested on: Staphylococcus aureus; experiment: Antibacterial activity against Staphylococcus aureus; assay type: functional
[9] = tested on: Mycolicibacterium phlei; experiment: Antibacterial activity against Mycobacterium phlei; assay type: functional
[10] = tested on: Staphylococcus aureus; experiment: Antibacterial activity against Staphylococcus aureus FDA 209P by agar diffusion method; assay type: functional
[11] = tested on: Human immunodeficiency virus 1; experiment: Antiviral activity against HIV1 infected in U937 cells; assay type: functional, organism-based; conditions: Human immunodeficiency virus 1, U-937
[12] = tested on: Alternaria kikuchiana; experiment: Antimicrobial activity against Alternaria kikuchiana NIAS by agar diffusion method; assay type: functional
[13] = tested on: Human immunodeficiency virus 1; experiment: Antiviral activity against HIV1; assay type: functional, organism-based
[14] = tested on: Pyricularia oryzae; experiment: […] activity against Pyricularia oryzae by agar diffusion method; assay type: functional
[15] = tested on: Mycobacteroides abscessus; experiment: Antimycobacterial activity against Mycobacterium abscessus ATCC 19977; assay type: functional
[16] = tested on: Xanthomonas oryzae; experiment: […] activity against Xanthomonas oryzae by agar diffusion method; assay type: functional
[17] = tested on: Mycolicibacterium phlei; experiment: Antimycobacterial activity against Mycobacterium phlei IPCR by agar diffusion method; assay type: functional
[18] = tested on: Influenza A virus H3N2; experiment: Antiviral activity against Influenza A virus (A/Hong Kong/7/1987(H3N2)) infected in MDCK cells after 3 days by MTT assay; assay type: functional, organism-based; conditions: 72 h
[19] = tested on: Alternaria kikuchiana; experiment: Antimicrobial activity against Alternaria kikuchiana A-14 by agar diffusion method; assay type: functional
[20] = tested on: Mycobacterium avium; experiment: Antimycobacterial activity against Mycobacterium avium IFO 315 by agar diffusion method; assay type: functional

With `CC[C@@H](C(=O)[C@@H](C)[C@@H](O)[C@H](C)[C@@H]1O[C@@H]([C@@H](CC)C(=O)Nc2ccccc2)CC[C@@H]1C)[C@H]1O[C@]2(C=C[C@@H](O)[C@]3(CC[C@@](C)([C@H]4CC[C@](O)(CC)[C@H](C)O4)O3)O2)[C@H](C)C[C@@H]1C` the MIC [1] was 2 µg/mL (≈ 2.42 µM) and the MIC [2] was 4 µg/mL (≈ 4.84 µM).

`CCCCNC(=O)[C@H](CC)[C@H]1CC[C@H](C)[C@H]([C@@H](C)[C@H](O)[C@H](C)C(=O)[C@H](CC)[C@H]2O[C@]3(C=C[C@@H](O)[C@]4(CC[C@@](C)([C@H]5CC[C@](O)(CC)[C@H](C)O5)O4)O3)[C@H](C)C[C@@H]2C)O1` showed a GI50 [3] of 40 nM.

`CC[C@@H](C(=O)[C@@H](C)[C@@H](O)[C@H](C)[C@@H]1O[C@@H]([C@@H](CC)C(=O)On2nnc3ccccc32)CC[C@@H]1C)[C@H]1O[C@]2(C=C[C@@H](O)[C@]3(CC[C@@](C)([C@H]4CC[C@](O)(CC)[C@H](C)O4)O3)O2)[C@H](C)C[C@@H]1C` showed an MIC [1] of 1 to 2 µg/mL (≈ 1.15 to 2.3 µM).

Work on `CC[C@@H](C(=O)[C@@H](C)[C@@H](O)[C@H](C)[C@@H]1O[C@@H]([C@@H](CC)C(=O)N(CC)CC)CC[C@@H]1C)[C@H]1O[C@]2(C=C[C@@H](O)[C@]3(CC[C@@](C)([C@H]4CC[C@](O)(CC)[C@H](C)O4)O3)O2)[C@H](C)C[C@@H]1C` yielded an MIC [4] of 4 to 8 µg/mL (≈ 4.96 to 9.92 µM) and an MIC [5] of 1 µg/mL (≈ 1.24 µM).

Compound `CCCN(CCC)C(=O)[C@H](CC)[C@H]1CC[C@H](C)[C@H]([C@@H](C)[C@H](O)[C@H](C)C(=O)[C@H](CC)[C@H]2O[C@]3(C=C[C@@H](O)[C@]4(CC[C@@](C)([C@H]5CC[C@](O)(CC)[C@H](C)O5)O4)O3)[C@H](C)C[C@@H]2C)O1` has an MIC [4] of 4 to 8 µg/mL (≈ 4.8 to 9.59 µM) and an MIC [5] of 4 µg/mL (≈ 4.8 µM).

For `CC[C@@H](C(=O)[C@@H](C)[C@@H](O)[C@H](C)[C@@H]1O[C@@H]([C@@H](CC)C(=O)OC[C@H]2O[C@@H](n3cc(F)c(=O)[nH]c3=O)C[C@@H]2O)CC[C@@H]1C)[C@H]1O[C@]2(C=C[C@@H](O)[C@]3(CC[C@@](C)([C@H]4CC[C@](O)(CC)[C@H](C)O4)O3)O2)[C@H](C)C[C@@H]1C`, the MIC [4] was 8.17 to 32.7 µg/mL (≈ 8.34 to 33.4 µM) and the MIC [2] was 8.17 to 32.7 µg/mL (≈ 8.34 to 33.4 µM).

`CC[C@@H](C(=O)[C@@H](C)[C@@H](O)[C@H](C)[C@@H]1O[C@@H]([C@@H](CC)C(=O)OCC(F)(F)F)CC[C@@H]1C)[C@H]1O[C@]2(C=C[C@@H](O)[C@]3(CC[C@@](C)([C@H]4CC[C@](O)(CC)[C@H](C)O4)O3)O2)[C@H](C)C[C@@H]1C` showed an MIC [4] of 2 to 4 µg/mL (≈ 2.4 to 4.8 µM), a GI50 [3] of 57 nM and an MIC [2] of 0.5 to 1 µg/mL (≈ 0.6 to 1.2 µM).

In the case of `CCCCC(=O)O[C@@H]1C=C[C@]2(O[C@H]([C@@H](CC)C(=O)[C@@H](C)[C@@H](O)[C@H](C)[C@@H]3O[C@@H]([C@@H](CC)C(=O)O)CC[C@@H]3C)[C@@H](C)C[C@H]2C)O[C@@]12CC[C@@](C)([C@H]1CC[C@](O)(CC)[C@H](C)O1)O2`, the MIC [6] is reported as 1.56 µg/mL (≈ 1.87 µM), the MIC [7] is reported as 1.56 µg/mL (≈ 1.87 µM) and the MIC [8] is reported as 0.78 µg/mL (≈ 0.934 µM). The MIC [9] was 3.12 µg/mL (≈ 3.74 µM).

Work on `CC[C@@H](C(=O)[C@@H](C)[C@@H](O)[C@H](C)[C@@H]1O[C@@H]([C@@H](CC)C(=O)O)CC[C@@H]1C)[C@H]1O[C@]2(C=C[C@@H](OC(C)=O)[C@]3(CC[C@@](C)([C@H]4CC[C@](O)(CC)[C@H](C)O4)O3)O2)[C@H](C)C[C@@H]1C` yielded an MIC [6] of 1.56 µg/mL (≈ 1.97 µM), an MIC [7] of 1.56 µg/mL (≈ 1.97 µM) and an MIC [8] of 0.78 µg/mL (≈ 0.984 µM). For the same compound, the MIC [9] was 6.25 µg/mL (≈ 7.88 µM).

In the case of `CCC(=O)O[C@@H]1C=C[C@]2(O[C@H]([C@@H](CC)C(=O)[C@@H](C)[C@@H](O)[C@H](C)[C@@H]3O[C@@H]([C@@H](CC)C(=O)O)CC[C@@H]3C)[C@@H](C)C[C@H]2C)O[C@@]12CC[C@@](C)([C@H]1CC[C@](O)(CC)[C@H](C)O1)O2`, the MIC [6] is reported as 0.78 µg/mL (≈ 0.966 µM), the MIC [7] is reported as 0.78 µg/mL (≈ 0.966 µM) and the MIC [8] is reported as 0.78 µg/mL (≈ 0.966 µM). The MIC [9] was 1.56 µg/mL (≈ 1.93 µM).

`CCCC(=O)O[C@@H]1C=C[C@]2(O[C@H]([C@@H](CC)C(=O)[C@@H](C)[C@@H](O)[C@H](C)[C@@H]3O[C@@H]([C@@H](CC)C(=O)O)CC[C@@H]3C)[C@@H](C)C[C@H]2C)O[C@@]12CC[C@@](C)([C@H]1CC[C@](O)(CC)[C@H](C)O1)O2` showed an MIC [6] of 0.78 µg/mL (≈ 0.95 µM), an MIC [7] of 0.78 µg/mL (≈ 0.95 µM) and an MIC [8] of 0.78 µg/mL (≈ 0.95 µM). The MIC [9] was 1.56 µg/mL (≈ 1.9 µM).

Work on `CC[C@@H](C(=O)[C@@H](C)[C@@H](O)[C@H](C)[C@@H]1O[C@@H]([C@@H](CC)C(=O)O)CC[C@@H]1C)[C@H]1O[C@]2(C=C[C@@H](OC=O)[C@]3(CC[C@@](C)([C@H]4CC[C@](O)(CC)[C@H](C)O4)O3)O2)[C@H](C)C[C@@H]1C` yielded an MIC [6] of 3.12 µg/mL (≈ 4.01 µM), an MIC [7] of 3.12 µg/mL (≈ 4.01 µM) and an MIC [8] of 1.56 µg/mL (≈ 2 µM). It also gave an MIC [9] of 12.5 µg/mL (≈ 16 µM).

Work on `CC[C@@H](C(=O)[C@@H](C)[C@@H](O)[C@H](C)[C@@H]1O[C@@H]([C@@H](CC)C(=O)OCc2cc([N+](=O)[O-])cc([N+](=O)[O-])c2)CC[C@@H]1C)[C@H]1O[C@]2(C=C[C@@H](O)[C@]3(CC[C@@](C)([C@H]4CC[C@](O)(CC)[C@H](C)O4)O3)O2)[C@H](C)C[C@@H]1C` yielded an MIC [4] of 4 to 8 µg/mL (≈ 4.3 to 8.59 µM) and an MIC [2] of 8 to 16 µg/mL (≈ 8.59 to 17.2 µM).

For `CC[C@@H](C(=O)[C@@H](C)[C@@H](O)[C@H](C)[C@@H]1O[C@@H]([C@@H](CC)C(=O)NCc2ccc(F)cc2)CC[C@@H]1C)[C@H]1O[C@]2(C=C[C@@H](O)[C@]3(CC[C@@](C)([C@H]4CC[C@](O)(CC)[C@H](C)O4)O3)O2)[C@H](C)C[C@@H]1C`, the MIC [4] was 16 to 128 µg/mL (≈ 18.6 to 149 µM) and the MIC [2] was 16 to 64 µg/mL (≈ 18.6 to 74.6 µM).

`O=C(N[C@H](CO)[C@H](O)c1ccc([N+](=O)[O-])cc1)C(Cl)Cl` [CHLORAMPHENICOL] was tested, and the MIC [10] was 3.12 µg/mL (≈ 9.66 µM).

With `CC[C@H]1OC(=O)[C@H](C)[C@@H](O[C@H]2C[C@@](C)(OC)[C@@H](O)[C@H](C)O2)[C@H](C)[C@@H](O[C@@H]2O[C@H](C)C[C@H](N(C)C)[C@H]2O)[C@](C)(O)C[C@@H](C)C(=O)[C@H](C)[C@@H](O)[C@]1(C)O` [ERYTHROMYCIN] the MIC [10] was 3.12 µg/mL (≈ 4.25 µM).

With `CC[C@@H](C(=O)[C@@H](C)[C@@H](O)[C@H](C)[C@@H]1O[C@@H]([C@@H](CC)C(=O)O)CC[C@@H]1C)[C@H]1O[C@]2(C=C[C@@H](O)[C@]3(CC[C@@](C)([C@H]4CC[C@](O)(CC)[C@H](C)O4)O3)O2)[C@H](C)C[C@@H]1C` [SALINOMYCIN] the EC50 [11] was 0.09 µg/mL (≈ 0.12 µM), the MIC [6] was 3.12 µg/mL (≈ 4.15 µM) and the MIC [12] was 50 µg/mL (≈ 66.6 µM). For the same compound, the EC50 [13] was 0.4 µg/mL (≈ 0.533 µM), the MIC [7] was 3.12 µg/mL (≈ 4.15 µM) and the MIC [4] was 1 to 16 µg/mL (≈ 1.33 to 21.3 µM). It also gave a GI50 [3] of 180 nM, an MIC [1] of 1 to 2 µg/mL (≈ 1.33 to 2.66 µM) and an MIC [5] of 1 µg/mL (≈ 1.33 µM). It also gave an MIC [14] of 25 µg/mL (≈ 33.3 µM), an MIC [15] of over 20 µg/mL and an MIC [16] of 50 µg/mL (≈ 66.6 µM). For the same compound, the MIC [17] was 12.5 µg/mL (≈ 16.6 µM), the MIC [2] was 1 to 16 µg/mL (≈ 1.33 to 21.3 µM) and the EC50 [18] was 400 to 4300 nM. For the same compound, the MIC [19] was 50 µg/mL (≈ 66.6 µM), the MIC [8] was 1.56 µg/mL (≈ 2.08 µM) and the MIC [9] was 12.5 µg/mL (≈ 16.6 µM). It also gave an MIC [20] of 12.5 µg/mL (≈ 16.6 µM).

`CN[C@@H]1[C@H](O[C@H]2[C@H](O[C@H]3[C@H](O)[C@@H](O)[C@H](N=C(N)N)[C@@H](O)[C@@H]3N=C(N)N)O[C@@H](C)[C@]2(O)C=O)O[C@@H](CO)[C@H](O)[C@H]1O` [STREPTOMYCIN] was tested, and the MIC [10] was 3.12 µg/mL (≈ 5.36 µM).

For `CN(C)[C@@H]1C(O)=C(C(N)=O)C(=O)[C@@]2(O)C(O)=C3C(=O)c4c(O)cccc4[C@@](C)(O)[C@H]3C[C@@H]12` [TETRACYCLINE], the MIC [10] was 3.12 µg/mL (≈ 7.02 µM).
